# Where two headings read alike, the source gives them in different places.
# Assays:
# [1] = biological target: T1, PD-1/PD-L1 interaction (Homo sapiens, UniProt Q9NZQ7); assay: PD-1/PD-L1 ICB assay (Jurkat-ECs with CHO/TCRAct/PD-L1 cells, luciferase); format: cell-based; conditions: for selectivity of PD-1/PD-L1-blocking activity versus cytotoxicity: EC50 (tox.) vs EC50 (bio.), Figure 3F; for EC50: Jurkat-ECs with CHO/TCRAct/PD-L1, 6 h, SI csv, read-out: Bioactivity (EC50 in the ICB assay)
# T1 construct: host or cells: CHO-K1 (CHO/TCRAct/PD-L1) and Jurkat effector cells
# T1 sequence (Q9NZQ7 19-290): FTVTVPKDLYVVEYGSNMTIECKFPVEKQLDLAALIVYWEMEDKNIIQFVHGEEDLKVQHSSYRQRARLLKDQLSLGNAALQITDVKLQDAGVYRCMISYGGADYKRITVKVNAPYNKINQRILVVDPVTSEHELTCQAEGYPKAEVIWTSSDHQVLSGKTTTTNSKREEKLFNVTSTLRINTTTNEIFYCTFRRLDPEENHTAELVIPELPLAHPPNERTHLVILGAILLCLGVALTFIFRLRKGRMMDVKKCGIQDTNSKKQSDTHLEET
# Protocol: After a successful optimization of the terphenyl compounds, the activity of the optimized molecules 7a and 8a–j in a cellular context was assessed. To this end, we first performed the PD-1/PD-L1 ICB assay. In this assay, T-cell receptor (TCR)-mediated activation of Jurkat effector cells (Jurkat-ECs) is reduced by the presence of PD-L1, exposed at the surface of CHO/TCRAct/PD-L1 cells (Figure 3A).
# (§1) The functional assay of the blockade of PD-1/PD-L1 interaction in vitro (PD-1/PD-L1 Blockade Bioassay, Promega) was performed according to the manufacturer’s protocol. CHO/TCRAct/PD-L1 cells or CHO/TCRAct or CHO-K1 cells were seeded on 96-well white plates at the density of 10,000 cells/well and the next day overlaid with Jurkat T cells (20,000 cells/well) in the presence of increasing concentrations of the compounds with DMSO only as a control (the concentration of DMSO was kept constant at 0.1%) or atezolizumab, as a positive control, anti-PD-L1 monoclonal antibody (Selleckchem). The 2.5-fold dilutions of atezolizumab were prepared in the assay buffer (RPMI 1640 + 1% FBS) on the day of the assay. Activation of the Jurkat T cells, reflected by luciferase activity, was monitored by luminescence measurements after 6 h of incubation (37 °C, 5% CO2), and 20 min of additional incubation with the Bio-Glo assay reagent (Promega) at room temperature. The luminescence was read on a Spark microplate reader (Tecan). The data are presented as fold induction of the luminescence signal relative to either untreated (for atezolizumab) or DMSO-treated (for compound) cells. Data points represent mean ± SD values from three to five independent experiments. Half-maximal effective concentrations (EC50 values) were calculated from the Hill curve fitting to the experimental data using Origin Pro 2020 software (OriginLab).
# [2] = Cytotoxicity assay toward Jurkat-ECs; format: cell-based; conditions: human, Jurkat-EC cells, SI csv
# Protocol: The cytotoxicity of compounds was verified toward Jurkat-ECs since these cells provide the readout in the ICB assay and present a much higher degree of susceptibility to the compounds’ toxicity than CHO-K1 cells (not shown). Jurkat-ECs were seeded on 96-well transparent plates in the presence of increasing concentrations of the compounds with DMSO-treated cells as a control. The concentration of DMSO was kept constant (0.1%). After 48 h of incubation, a tetrazolium reagent, Biolog redox dye MIX MB (Biolog), was added according to the manufacturer’s protocol, and the culture plates were incubated for an additional 2 h (37 °C, 5% CO2). The absorbance was measured using a Spark microplate reader (Tecan) at 590 nm with 750 nm as a reference. The data are presented as Jurkat-EC survival relative to DMSO-treated control cells. Data points represent mean ± SD values from three independent experiments. Half-maximal effective concentrations (EC50 values) were calculated from the dose–response curve using OriginPro 2020 (OriginLab) software.
# [3] = tested on: primary CD4+ and CD8+ T cells (PBMCs); assay: T-cell activation (TCA) assay, PBMCs with CHO/TCRAct/PD-L1 cells, flow cytometry; format: cell-based, human; conditions: 48 h; compounds 0.1, 0.5, 2.5 μM; mAbs 5 μg/mL
# Protocol: A standard ICB assay relies on artificial Jurkat-ECs, which are surrogates of T-cells. To verify the potential of the compounds to reactivate the PD-L1-blocked primary T cells, a modified assay termed T-cell activation (TCA) was carried out.[32] In this assay, human primary peripheral blood mononuclear cells (PBMCs) are allowed to make contact with CHO/TCRAct/PD-L1 cells alone or in the presence of PD-1/PD-L1 blockers, and the activation of CD4^+ and CD8^+ T cell is monitored by flow cytometry.
# Anticoagulant citrate dextrose-A-treated blood from healthy donors was purchased from the Regional Center of Blood Donation and Blood Therapy in Krakow, Poland. PBMCs were isolated from whole blood by density gradient centrifugation using Pancoll human separating solution (PAN-Biotech GmbH, Aidenbach, Germany). The separated cells were washed and resuspended in RPMI 1640 medium (Biowest) containing 10% FBS (Biowest). PBMCs were added at an amount of 3 × 10^5 to CHO, CHO/TCRAct, or CHO/TCRAct/PD-L1 cells preseeded on 24-well plates in the presence of either anti-PD-L1 mAbs (at the final concentration 5 μg/mL): durvalumab (Selleckchem), atezolizumab (Selleckchem), or avelumab (MedChemExpress) or tested compounds at the concentrations 0.1, 0.5, and 2.5 μM. Untreated cells were used as controls for antibody treatment, while DMSO-treated cells [0.1% (v/v)] were used as controls for compound treatment. The cells were incubated for 48 h (37 °C, 5% CO2) and then detached from the plates with TrypLe Select Enzyme (Thermo Fisher). PBMCs were stained for 20 min at room temperature with the antibodies: anti-CD4-FITC, anti-CD8-BV510, anti-CD69-APC, anti-CD25-PE, anti-HLA-DR-PerCP, and anti-PD1-PECy7 (Becton Dickinson Biosciences, BD). Following two washing steps, the cells were analyzed with a FACSCanto II cytometer. Data analysis was carried out with FlowJo software, followed by statistical significance calculations done with Origin Pro 2020 software (OriginLab). Statistical significance was analyzed with one-way analysis of variance (ANOVA), followed by the Fisher’s posthoc test: *p < 0.05, **p < 0.01, […].
# [4] = tested on: Jurkat-ECs alone or with CHO wt or CHO/TCRAct cells; assay: ICB assay control where PD-L1 is absent; format: cell-based; conditions: 6 h; Figure S1
# Protocol: as §1, with “(OriginLab). […]” for “(OriginLab).”
# of the Immune Checkpoint Blockade (ICB) assay, where 8h, 8i, and 8j were used to restore the activation of effector Jurkat-ECs. Jurkat-ECs were either kept alone, or contacted with one of the following cell lines: wild type CHO K1 cells (CHO wt), CHO K1 cells expressing TCR Activator (CHO/TCRAct), or CHO K1 cells expressing TCR Activator and […]. The cells were incubated with the indicated concentrations of the compounds for 6 hours and luminescence was measured as an indicator of TCR-dependent activation of Jurkat-ECs. The graphs present fold induction of the luminescence signal relative to DMSO-treated cells. […]
# [5] = biological target: PD-1/PD-L1 complex (Homo sapiens, UniProt Q9NZQ7); assay: HTRF assay of PD-1/PD-L1 complex dissociation (CisBio); conditions: for remaining activity at 0.005 µM: 2 h; for IC50: HTRF, Table 4, <1.00 = limit of quantification reached;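 for all read-outs here: human PD-L1 at 5 nM with human PD-1 at 50 nM, TR-FRET signal read after 2 h at room temperature, background removed via negative control and scaled to positive control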
# Chain of PD-1/PD-L1 complex (Q9NZQ7 19-238 limits assumed, one chain of several): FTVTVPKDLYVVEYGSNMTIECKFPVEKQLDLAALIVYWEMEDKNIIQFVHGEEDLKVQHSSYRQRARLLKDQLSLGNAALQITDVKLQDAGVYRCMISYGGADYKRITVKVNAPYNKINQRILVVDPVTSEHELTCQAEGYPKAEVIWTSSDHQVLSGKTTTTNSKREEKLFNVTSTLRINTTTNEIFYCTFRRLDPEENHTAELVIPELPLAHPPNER
# [6] = tested on: PBMCs cocultured with CHO/TCRAct/PD-L1 cells; assay: Cytokine accumulation in culture media of the TCA assay (CBA Th1/Th2/Th17 kit); format: cell-based, human; conditions: TCA assay supernatants, four donors
# Protocol: In addition to the expression of surface markers, the accumulation of immune-related cytokines in the culture media collected in the TCA assay was monitored with the cytometric bead array (CBA) human Th1/Th2/Th17 kit. […] Also, the levels of IL-6, IFN-γ, and IL-2 increased, but these increases were not statistically significant.
# The concentration of the cytokines (IL-2, IL-4, IL-6, IL-10, IL-17A, IFN-γ, and TNFα) in supernatants was determined using the CBA Human Th1/Th2/Th17 kit (BD Biosciences), with data acquisition using the FACSCanto flow cytometer. The CBA beads were discriminated in FL-4 and FL-5 channels, while the concentration of specified cytokines was determined by the intensity of FL-2 fluorescence, using the respective standard reference curve and FCAP Array software (BD Biosciences). IL-4 was below the detection level and is not presented in the manuscript. Statistical significance was analyzed with one-way ANOVA using the Origin Pro 2020 software, followed by the Fisher’s posthoc test: *p < 0.05, **p < 0.01, […].
# [7] = read-out: % of undissociated complex at 5 nM
# [8] = read-out: HTRF % of the undissociated complex at 5 nM
EC50 [1] [nM],"remaining activity at 0.005 µM [5, 7] [%]","remaining activity at 0.005 µM [5, 8] [%]",IC50 [5] [nM],Compound,selectivity of PD-1/PD-L1-blocking activity versus cytotoxicity [1],EC50 at 48 h [2] [nM],numbers of PD-1-positive T cells [3],activation of Jurkat-ECs where PD-L1 is absent [4],"activation of Jurkat-ECs ([1]; 6 h, fold induction of luminescence)",accumulation of immune-related cytokines in culture media [6]
2000 ± 370,6,6,< 1,"COc1cc(-c2cccc(-c3ccc4c(c3)OCCO4)c2Cl)ccc1CNCCNC(N)=O [8h, 1-(2-(((3′-(Benzo-1,4-dioxan-6-yl)-2′-chloro-3-methoxy-[1,1′-biphenyl]-4-yl)methyl)amino)ethyl)urea]",highest selectivity,4140 ± 710,significant increase,requires the presence of PD-L1,–,–
2570 ± 450,0,0,< 1,"COc1cc(-c2cccc(-c3ccc4c(c3)OCCO4)c2Cl)ccc1CNC(CO)CO [8i, 2-(((3′-(Benzo-1,4-dioxan-6-yl)-2′-chloro-3-methoxy-[1,1′-biphenyl]-4-yl)methyl)amino)propane-1,3-diol]",highest selectivity,4630 ± 350,–,requires the presence of PD-L1,–,–
–,–,–,–,"atezolizumab: therapeutic anti-PD-L1 monoclonal antibody, positive control",–,–,increases the expression of PD-1 on T-cells,–,full activation of Jurkat-ECs is restored,"significantly increased levels of IL-17A, TNF-α, and IL-10"

# — publication PMC8365601, “Terphenyl-Based Small-Molecule Inhibitors of Programmed Cell Death-1/Programmed Death-Ligand 1 Protein–Protein Interaction” (Journal of Medicinal Chemistry, 2021)
